Results reported in ChEMBL document CHEMBL1134297, “5,6-Diphenylpyridazine derivatives as acyl-CoA:cholesterol acyltransferase inhibitors” (J Med Chem, 2001).
pIC50: −log10 of the molar value. Values joined by “and” are separate entries in the source; they are usually repeats but may differ in a detail not shown here. Equal entries are not always repeated.

target: Sterol O-acyltransferase 1 (Mus musculus) (UniProt Q61263); assay: Inhibitory activity against Acyl-coenzyme A:cholesterol acyltransferase in macrophages
Sequence (Q61263 whole entry, looked up): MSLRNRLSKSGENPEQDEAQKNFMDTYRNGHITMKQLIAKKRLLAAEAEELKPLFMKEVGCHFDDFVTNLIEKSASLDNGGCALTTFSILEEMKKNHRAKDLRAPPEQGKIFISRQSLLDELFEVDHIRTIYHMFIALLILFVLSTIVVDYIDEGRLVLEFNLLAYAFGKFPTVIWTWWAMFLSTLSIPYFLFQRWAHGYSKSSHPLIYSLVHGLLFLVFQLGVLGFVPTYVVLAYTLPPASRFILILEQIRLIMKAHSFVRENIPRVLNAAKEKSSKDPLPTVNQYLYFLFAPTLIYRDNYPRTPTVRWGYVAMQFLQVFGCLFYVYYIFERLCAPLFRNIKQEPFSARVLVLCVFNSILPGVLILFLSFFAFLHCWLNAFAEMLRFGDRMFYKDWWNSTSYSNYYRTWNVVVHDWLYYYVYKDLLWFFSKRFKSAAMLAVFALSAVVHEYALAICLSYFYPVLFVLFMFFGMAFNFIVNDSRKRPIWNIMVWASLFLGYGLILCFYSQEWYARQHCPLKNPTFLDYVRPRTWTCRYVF

pIC50	SMILES
5.49	CCCCCCCCNc1cc(-c2ccccc2)c(-c2ccccc2)nn1
5.29	CCCCCCCOc1cc(-c2ccccc2)c(-c2ccccc2)nn1

target: T1, Sterol O-acyltransferase 1 (Rattus norvegicus, UniProt O70536); assay: In vitro acyl-coenzyme A:cholesterol acyltransferase inhibition in rat liver microsomes; design: species or system Microsome
T1 sequence (O70536 whole entry): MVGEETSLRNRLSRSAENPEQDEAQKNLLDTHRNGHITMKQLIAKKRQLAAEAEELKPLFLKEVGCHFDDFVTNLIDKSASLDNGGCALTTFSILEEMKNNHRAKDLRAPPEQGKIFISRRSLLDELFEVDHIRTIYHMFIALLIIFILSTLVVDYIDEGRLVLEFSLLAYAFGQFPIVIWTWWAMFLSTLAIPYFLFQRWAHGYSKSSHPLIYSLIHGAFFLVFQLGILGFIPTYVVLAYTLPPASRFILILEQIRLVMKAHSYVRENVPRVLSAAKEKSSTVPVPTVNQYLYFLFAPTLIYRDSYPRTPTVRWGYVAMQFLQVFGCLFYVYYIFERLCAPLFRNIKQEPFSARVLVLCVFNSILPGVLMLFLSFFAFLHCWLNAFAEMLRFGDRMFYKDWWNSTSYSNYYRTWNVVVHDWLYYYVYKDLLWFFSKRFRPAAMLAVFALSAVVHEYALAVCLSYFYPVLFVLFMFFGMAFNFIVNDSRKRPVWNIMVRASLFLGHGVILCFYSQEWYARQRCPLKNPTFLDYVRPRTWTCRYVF

SMILES	pIC50
CCCCCCCCS(=O)(=O)c1cc(-c2ccccc2)c(-c2ccccc2)nn1	4.44
O=c1cc(-c2ccccc2)c(-c2ccccc2)nn1C1CCCC1	3.92
CCCCCCCCCS(=O)(=O)c1cc(-c2ccccc2)c(-c2ccccc2)nn1	4.12
CCCCCCCn1nc(-c2ccccc2)c(-c2ccccc2)cc1=O	4.07
CCCCCCCCn1nc(-c2ccccc2)c(-c2ccccc2)cc1=O	4.10
CCCCCCCCC[S+]([O-])c1cc(-c2ccccc2)c(-c2ccccc2)nn1 (stereo unspecified)	4.06
O=C(O)CCCCCCCn1nc(-c2ccccc2)c(-c2ccccc2)cc1=O	< 3.52
CCCCn1nc(-c2ccccc2)c(-c2ccccc2)cc1=O	3.75
CCCCCn1nc(-c2ccccc2)c(-c2ccccc2)cc1=O	4.18
CC(C)n1nc(-c2ccccc2)c(-c2ccccc2)cc1=O	3.82
CCCn1nc(-c2ccccc2)c(-c2ccccc2)cc1=O	3.64
CCCCCCn1nc(-c2ccccc2)c(-c2ccccc2)c(C)c1=O	4.25
O=c1cc(-c2ccccc2)c(-c2ccccc2)nn1C1CCCCC1	< 3.52
O=C(O)CCCCCCn1nc(-c2ccccc2)c(-c2ccccc2)cc1=O	< 3.52
CCCCCCCCCn1nc(-c2ccccc2)c(-c2ccccc2)cc1=O	4.07

Results, then the compound that gave them:

pIC50	SMILES
4.26	CCCCCCCNc1cc(-c2ccccc2)c(-c2ccccc2)nn1
< 3.52	O=C(O)CCCCCCSc1cc(-c2ccccc2)c(-c2ccccc2)nn1
< 3.52	O=C(O)CCCCCSc1cc(-c2ccccc2)c(-c2ccccc2)nn1
< 3.52	O=C(O)CCCCCCCCSc1cc(-c2ccccc2)c(-c2ccccc2)nn1
4.12	CCCCCCCSc1cc(-c2ccccc2)c(-c2ccccc2)nn1
4.40	CCCCCCCCNc1cc(-c2ccccc2)c(-c2ccccc2)nn1
3.94	CCCCCCCCCSc1cc(-c2ccccc2)c(-c2ccccc2)nn1
4.24	CCCCCCn1nc(-c2ccccc2)c(-c2ccccc2)cc1=O
3.89	CCCCCCCCSc1cc(-c2ccccc2)c(-c2ccccc2)nn1
4.22	CCCCCCS(=O)(=O)c1cc(-c2ccccc2)c(-c2ccccc2)nn1
< 3.52	CCCCCC(=O)Nc1cc(-c2ccccc2)c(-c2ccccc2)nn1
4.21	CCCCCCSc1cc(-c2ccccc2)c(-c2ccccc2)nn1
3.98	CCCCCCCCOc1cc(-c2ccccc2)c(-c2ccccc2)nn1
4.14	CCCCCCOc1cc(-c2ccccc2)c(-c2ccccc2)nn1
4.14	CCCCCOc1cc(-c2ccccc2)c(-c2ccccc2)nn1
4.11	CCCCCCC[S+]([O-])c1cc(-c2ccccc2)c(-c2ccccc2)nn1 (stereo unspecified)
4.12	CCCCCC[S+]([O-])c1cc(-c2ccccc2)c(-c2ccccc2)nn1 (stereo unspecified)
4.04	CCCCCCCC[S+]([O-])c1cc(-c2ccccc2)c(-c2ccccc2)nn1 (stereo unspecified)
4.31	CCCCCCCS(=O)(=O)c1cc(-c2ccccc2)c(-c2ccccc2)nn1
4.62	CCCCCCNc1cc(-c2ccccc2)c(-c2ccccc2)nn1
< 3.52	O=C(O)CCCCCCCSc1cc(-c2ccccc2)c(-c2ccccc2)nn1
3.74	CCCCCCCCCOc1cc(-c2ccccc2)c(-c2ccccc2)nn1
4.24	CCCCCCCOc1cc(-c2ccccc2)c(-c2ccccc2)nn1

tested on: not listed separately; assay: Percent inhibition of cell viability in murine macrophages; format: functional, Mus musculus; design: concentration or dose not given beside the values

SMILES	Inhibition
CCCCCCCCNc1cc(-c2ccccc2)c(-c2ccccc2)nn1	11.5% and 9.9% and 3.7% and 4.8%
CCCCCCCOc1cc(-c2ccccc2)c(-c2ccccc2)nn1	<1%
CCCCCCCCCNc1cc(-c2ccccc2)c(-c2ccccc2)nn1	5.9% and 2.7% and <1%

organism: Mus musculus; assay: Inhibition of cholesterol esterification in macrophages (Cholesterol efflux); format: functional

SMILES	Esterification inhibitory concentration
CCCCCCCCNc1cc(-c2ccccc2)c(-c2ccccc2)nn1	12.9 µM and 11.5 µM
CCCCCCCOc1cc(-c2ccccc2)c(-c2ccccc2)nn1	12.6 µM and 11.8 µM
CCCCCCCCCNc1cc(-c2ccccc2)c(-c2ccccc2)nn1	14.1 µM and 13.8 µM
